Patent US20120010289A1, “METHOD FOR PLACENTAL EXFOLIATION USING OXO-ARACHIDONIC ACID OR THE LIKE” (Inc Admin Agcy Natl Agric & Food Res. Organization, priority 2007, published 2012)

Legend:
[1] = system: cultured fibroblasts derived from the placenta (MMP-producing cells); assay: Cell exfoliation assay to search for MMP activators; assay type: cell-based; conditions: fibroblasts from bovine fetal placenta, monolayer treated with cortisol, compound added; FIG. 2 and FIG. 3
Experimental: The in vitro pharmacological evaluation is exemplified by a method using cultured fibroblasts derived from the placenta (MMP-producing cells). First, the composition for placental exfoliation of the present invention is added to a culture medium of the concerned cultured fibroblasts. After the addition, the cells are cultured for a fixed period of time.
Therefore, cultured fibroblasts derived from the placenta (MMP-producing cells) were used to search for MMP activators.
Since in vivo MMP-2 is produced from fibroblasts, fibroblasts were prepared from bovine fetal placenta. A fixed amount of cells were seeded on the culture plate, and were treated with cortisol after the monolayer formation. Further, the MMP activator candidate compounds were added thereto.

pregnant Holstein cow = assay: Placental exfoliation by administration of 12-oxoarachidonic acid to a cow after prostaglandin-induced fetal delivery; assay type: in vivo
Experimental: The in vivo pharmacological evaluation is exemplified by a method using cows which have delivered fetuses by means of the single administration of a prostaglandin. First, the composition for placental exfoliation of the present invention is administered to cows after the fetal delivery.
In order to induce the fetal delivery, a formulation (10 ml) containing a naturally-occurring prostaglandin (50 mg) was intramuscularly injected into the hip of a pregnant Holstein cow (dairy cow) (body weight 779 kg) a week prior to the due date. Moreover, a cow after the third calving was again administered with the prostaglandin after 12 hours from the first injection thereof (evening on the first day).
The mother cow and the newborn calf were both healthy.
Next, after 4 hours from the fetal delivery, a saline solution (15 ml) containing 12-oxoarachidonic acid (1 mg) was intrajugularly injected into the mother cow which had delivered a fetus. After about 6 hours from the injection, the whole amount of the placenta was released from the mother cow. FIG. 4 presents photographs showing the manner of such parturition. […] In cases of the non-administration of 12-oxoarachidonic acid, the placenta was not released from the mother cow, and the placental retention occurred.

MMP = MMP activity in released placenta by gelatin zymography; assay type: in vivo, cow; conditions: PG-induction+oxo placenta compared with normal parturition and placental retention; FIG. 5
Experimental: In the method using gelatin zymography, first, the composition for MMP activation of the present invention is brought into contact with MMP-producing cells. After the incubation for a fixed time, the cells are lysed to make a protein solution, which is then subjected to an electrophoresis using a SDS polyacrylamide electrophoresis gel containing a gelatin (MMP substrate). After the migration, the temperature was kept for a fixed time to progress the enzyme reaction, followed by staining of undegraded gelatin remaining in the gel.
The MMP activity in released placenta was analyzed. The samples were as follows: a placenta released from a mother cow of normal parturition (without specific treatment) (expressed as “normal parturition” in FIG. 5); a placenta from a mother cow which was subjected to the fetal delivery induction with a prostaglandin but suffered from placental retention (expressed as “PG-induced parturition” in FIG. 5); a placenta released from a mother cow which was subjected to the fetal delivery induction with a prostaglandin and the subsequent placental release induction with a 12-oxoarachidonic acid (expressed as “PG-induction+oxo” in FIG. 5); and a placenta from a mother cow which had naturally-occurring placental retention (expressed as “placental retention cow” in FIG. 5).
The MMP activity was measured using gelatin zymography. […]

| SMILES | cell exfoliation activity (MMP activation ability) [1] | other results |
| --- | --- | --- |
| CCCCC/C=C\C[C@@H](O)/C=C/C=C\C/C=C\CCCC(=O)O [12(R)-hydroxyarachidonic acid] | no cell exfoliation activities | – |
| CCCCC/C=C\C[C@@H](/C=C/C=C\C/C=C\CCCC(=O)O)OO [12(S)-hydroperoxyarachidonic acid] | weak cell exfoliation activities | – |
| CCCCC/C=C\C[C@H](O)/C=C/C=C\C/C=C\CCCC(=O)O [12(S)-hydroxyarachidonic acid] | no cell exfoliation activities | – |
| CCCCC/C=C\CC(=O)/C=C/C=C\C/C=C\CCCC(=O)O [12-oxoarachidonic acid] | showed a cell exfoliation activity at a lower concentration than that of the arachidonic acid itself | time from injection to release of the whole amount of the placenta (pregnant Holstein cow; 1 mg in 15 ml saline, intrajugular, 4 hours after fetal delivery, Holstein cow 779 kg): about 6 hours; reproductive function of the postexperimental mother cow (pregnant Holstein cow; after 1 mg intrajugular 12-oxoarachidonic acid): reproductive function was not affected; MMP pattern (proMMP activity) of released placenta (MMP): MMP pattern very close to that of the placenta released from the cow of normal parturition |
| CCCCC/C=C\C/C=C\C/C=C\C/C=C\CCCC(=O)O [arachidonic acid] | confirmed to have a cell exfoliation activity | – |
| CCCCC/C=C\C/C=C\C/C=C\CCCCCCC(=O)O [dihomo-γ-linolenic acid] | weak activity | – |
| CCCCC/C=C\C/C=C\CCCCCCCC(=O)O [linoleic acid] | weak activity | – |
| CC/C=C\C/C=C\C/C=C\C/C=C\CCCCC(=O)O [stearidonic acid] | weak activity | – |
| CC/C=C\C/C=C\C/C=C\CCCCCCCC(=O)O [α-linolenic acid] | weak activity | – |
| CCCCC/C=C\C/C=C\C/C=C\CCCCC(=O)O [γ-linolenic acid] | medium activity | – |
| CC/C=C/C/C=C/C/C=C/C/C=C/CCCCCCC(=O)O [ω-3-arachidonic acid] | weak activity | – |
